In publication PMC6154694, “Absorption, Metabolic Stability, and Pharmacokinetics of Ginger Phytochemicals” (Molecules : A Journal of Synthetic Chemistry and Natural …, 2017):

How the values were obtained:
[1] = Solubility and stability in simulated gastric fluid (SGF); format: in vitro ADME; details: pH 1.2, 37 °C, n = 2
Procedure: SGF and SIF were prepared as per USP method. Briefly, SGF was prepared by adding 2 g of sodium chloride and 3.2 g of pepsin with water and pH was adjusted to 1.2 ± 0.1 using hydrochloric acid (7 mL) and volume made up to 1 L. SIF was prepared by dissolving 6.8 g monobasic potassium phosphate and 10 g pancreatin in Milli-Q water (Millipore, Billerica, MA, USA). pH was adjusted to 6.8 ± 0.1 with sodium hydroxide solution and volume was made upto 1 L. Reactions were initiated by spiking DMSO stock solutions of GE phenolics 10 μL into 1990 μL of SGF and SIF incubated at 37 °C for 10 min. Samples (200 μL) were withdrawn at 0, 15, 30, and 60 min for SGF and at 0, 30, 60, and 120 min for SIF and quenched with 200 μL acetonitrile containing internal standard.

[2] = Mouse pharmacokinetic study of oral GE with and without ketoconazole, plasma with and without β-glucuronidase treatment; format: in vivo, male mice (C57BL6J); details: for Concentration Ratio (Total/Free) of GE Phenolics: GE administered group; for Concentration Ratio (Total/Free) of GE Phenolics / concentration at 0 h / concentration at 0.087 h / concentration at 0.167 h / concentration at 0.25 h / concentration at 0.5 h / concentration at 1 h / concentration at 2 h / concentration at 3 h / concentration at 4 h / concentration at 6 h / concentration at 8 h / concentration at 12 h: mouse plasma; for AUC(0-t) / Cmax / Tmax / concentration at 0 h / concentration at 0.087 h / concentration at 0.167 h / concentration at 0.25 h / concentration at 0.5 h / concentration at 1 h / concentration at 2 h / concentration at 3 h / concentration at 4 h / concentration at 6 h / concentration at 8 h / concentration at 12 h: male, C57BL6J; for AUC(0-t) / Cmax / Tmax: mouse, plasma, po, 250 mg/kg
Procedure: A solution formulation of GE was prepared by using 5% ethanol, 5% Tween 80, 40% polyethylene glycol, and 50% corn oil. The dose volume was 10 mL/kg and the dose administered was 250 mg/kg GE.
Pharmacokinetic study in male mice (C57BL6J, Harlan Laboratories, Indianapolis, IN, USA) was run with 36 animals in each group at a GE dose of 250 mg/kg with a dose volume of 10 mL/kg. One group was given GE alone and in the second group GE was co-administered with KTZ (50 mg/kg). A terminal sampling design was used to collect blood samples at 0 (pre-dose), 0.08, 0.16, 0.25, 0.5, 1, 2, 3, 4, 6, 8, and 12 h. At each time, 1 mL of blood was collected in ethylenediaminetetraacetic acid di-potassium salt (K2EDTA) tubes (BD Biosciences, Franklin Lakes, NJ, USA). Plasma was separated by centrifugation of samples at 4000 rpm for 10 min and stored below −60 °C till bioanalysis. All experiments were performed with approval from the Institutional Animal Care and Use Committee (IACUC, approval code: A14031). All animals were acclimatized for five days before dosing in the experimental area. Food and water was provided ad libitum throughout the study period. Animals were marked and housed (three per cage, n = 36 per group) in polypropylene cages and maintained in controlled environmental conditions with 12 h light and dark cycles. The temperature and humidity of the room was maintained between 22 ± 3 °C and 30% to 50%, respectively, and approximately 10–12 fresh air change cycles per hour.
To confirm the presence of GE glucuronide conjugates, plasma (100 μL) was treated with βgd (20 μL, 500 units) and incubated at 37 °C for 1 h. Each sample was analyzed twice with and without β-gd treatment. Samples without gde treatment were diluted with 20 μL of buffer. Total (conjugated + free) and free ginger phenolics data were reported following bioanalysis.
All in vitro and in vivo samples were processed by protein precipitation method. An aliquot (100 μL) of the sample was spiked with 200 μL of acetonitrile containing dihydrocapsaicin as internal standard (IS) and vortex mixed for 3 min. The tubes were centrifuged at 12,000 rpm for 10 min and an aliquot of supernatant was transferred into autosampler vials for analysis. The stock solutions of 6G, 8G, 10G, and 6S were prepared in ACN/water (70:30) at 1 mg/mL. A calibration curve (CC) range of 2–2000 ng/mL was employed for the quantification of analytes and IS concentration was 150 ng/mL for each analysis. The CC consisted of blank, blank with IS and seven non-zero calibration standards. The calibration standards were within ±15% of the nominal concentration and lower limit of quantification was within ±20% of nominal. All samples were analyzed using liquid chromatography tandem mass spectrometry (LC-MS/MS) method (Agilent 6410 series, Santa Clara, CA, USA). A positive ionization mode with multiple reaction monitoring (MRM, m/z Q1/Q3) of 6G (m/z 277.1/177.1, retention time (RT) 2.0 min), 8G (m/z 305.1/177.1, RT 4.0 min), 10G (m/z 333.1/177.1, RT 7.7 min), 6S (m/z 277.1/137.1, RT 5.1 min), and IS (m/z 308.2/137.1, RT 3.4 min) was employed. The ion spray voltage was set at 3500 V, ionization temperature was set to 300 °C and drying gas flow rate was 10 L/min. Data acquisition and quantitation were performed using Mass Hunter software (Agilent Technologies, Wilmington, DE, USA). Separation was achieved using HP1100 series LC (Agilent Technologies) with an Agilent Zorbax reversed-phase (SB-C18, 2.1 × 50 mm, 5.0 μm) column. A gradient method was employed to separate the individual GE phenolics using mobile phase A (0.1% formic acid in water) and mobile phase B (Acetonitrile). The gradient elution method with 50% B at 0 min, 90% B at 5 min, held for 2.1 min, back to 50% B at 7.1 min with a flow rate of 0.2 mL/min. An injection volume of 2 μL was used for analysis. […]

[3] = 250 mg/kg GE + 50 mg/kg KTZ oral, +KTZ −βgd

## CCCCCCCCCC(O)CC(=O)CCc1ccc(O)c(OC)c1 (stereo not shown) [10G, 10-gingerol]
[1]
  half-life at 10 µM: > 60 min
[2]; +KTZ +βgd, reference GE group co-administered with KTZ untreated with βgd
  AUClast Ratio: 11
[2]; +KTZ +βgd, reference GE group untreated with βgd
  AUClast Ratio: 32
[2]; +KTZ −βgd, reference GE group untreated with βgd
  AUClast Ratio: 3
[2]; 0 h
  Concentration Ratio (Total/Free) of GE Phenolics: 0
[2]; 0.087 h
  Concentration Ratio (Total/Free) of GE Phenolics: 5
[2]; 0.167 h
  Concentration Ratio (Total/Free) of GE Phenolics: 11
[2]; 0.25 h
  Concentration Ratio (Total/Free) of GE Phenolics: 24
[2]; 0.5 h
  Concentration Ratio (Total/Free) of GE Phenolics: 13
[2]; 1 h
  Concentration Ratio (Total/Free) of GE Phenolics: 8
[2]; 2 h
  Concentration Ratio (Total/Free) of GE Phenolics: 19
[2]; 3 h
  Concentration Ratio (Total/Free) of GE Phenolics: 9
[2]; 4 h
  Concentration Ratio (Total/Free) of GE Phenolics: 9
[2]; 6 h
  Concentration Ratio (Total/Free) of GE Phenolics: 15
[2]; 8 h
  Concentration Ratio (Total/Free) of GE Phenolics: 0
[2]; 12 h
  Concentration Ratio (Total/Free) of GE Phenolics: 0
[2]; 250 mg/kg GE oral, −βgd
  AUC(0-t): 61.8 ng·h/mL
  Cmax: 56 ng/mL
  Tmax: 30 min
[2]; [3]
  AUC(0-t): 174 ng·h/mL
  Cmax: 79 ng/mL
  Tmax: 30 min
[2]; 250 mg/kg GE oral, 0 h, −βgd
  concentration at 0 h: 0 ng/mL
[2]; 250 mg/kg GE oral, 0.087 h, −βgd
  concentration at 0.087 h: 43.1 ± 35.3 ng/mL
[2]; 250 mg/kg GE oral, 0.167 h, −βgd
  concentration at 0.167 h: 20.7 ± 6.15 ng/mL
[2]; 250 mg/kg GE oral, 0.25 h, −βgd
  concentration at 0.25 h: 25.9 ± 4.43 ng/mL
[2]; 250 mg/kg GE oral, 0.5 h, −βgd
  concentration at 0.5 h: 56 ± 31.6 ng/mL
[2]; 250 mg/kg GE oral, 1 h, −βgd
  concentration at 1 h: 2.21 ± 0.62 ng/mL
[2]; 250 mg/kg GE oral, 2 h, −βgd
  concentration at 2 h: 4.08 ± 1.61 ng/mL
[2]; 250 mg/kg GE oral, 3 h, −βgd
  concentration at 3 h: 5.25 ± 1.06 ng/mL
[2]; 250 mg/kg GE oral, 4 h, −βgd
  concentration at 4 h: 3.06 ± 1.19 ng/mL
[2]; 250 mg/kg GE oral, 6 h, −βgd
  concentration at 6 h: 2.43 ± 1.16 ng/mL
[2]; 250 mg/kg GE oral, 8 h, −βgd
  concentration at 8 h: 5.04 ± 5.89 ng/mL
[2]; 250 mg/kg GE oral, 12 h, −βgd
  concentration at 12 h: 0.62 ± 0.72 ng/mL
[2]; 250 mg/kg GE with 50 mg/kg ketoconazole oral, 0 h, −βgd
  concentration at 0 h: 0 ng/mL
[2]; 250 mg/kg GE with 50 mg/kg ketoconazole oral, 0.087 h, −βgd
  concentration at 0.087 h: 0 ng/mL
[2]; 250 mg/kg GE with 50 mg/kg ketoconazole oral, 0.167 h, −βgd
  concentration at 0.167 h: 5.66 ± 5.12 ng/mL
[2]; 250 mg/kg GE with 50 mg/kg ketoconazole oral, 0.25 h, −βgd
  concentration at 0.25 h: 20.5 ± 21.6 ng/mL
[2]; 250 mg/kg GE with 50 mg/kg ketoconazole oral, 0.5 h, −βgd
  concentration at 0.5 h: 14000 ng/mL
[2]; 250 mg/kg GE with 50 mg/kg ketoconazole oral, 1 h, −βgd
  concentration at 1 h: 54.5 ± 58.3 ng/mL
[2]; 250 mg/kg GE with 50 mg/kg ketoconazole oral, 2 h, −βgd
  concentration at 2 h: 27900 ng/mL
[2]; 250 mg/kg GE with 50 mg/kg ketoconazole oral, 3 h, −βgd
  concentration at 3 h: 45.8 ± 48.2 ng/mL
[2]; 250 mg/kg GE with 50 mg/kg ketoconazole oral, 4 h, −βgd
  concentration at 4 h: 6.52 ± 1.14 ng/mL
[2]; 250 mg/kg GE with 50 mg/kg ketoconazole oral, 6 h, −βgd
  concentration at 6 h: 8.07 ± 5.96 ng/mL
[2]; 250 mg/kg GE with 50 mg/kg ketoconazole oral, 8 h, −βgd
  concentration at 8 h: 3.71 ± 2.46 ng/mL
[2]; 250 mg/kg GE with 50 mg/kg ketoconazole oral, 12 h, −βgd
  concentration at 12 h: 2.61 ± 1.41 ng/mL
